# The supplement of paper PMC11208160
# Assay: recombinant barcode read abundance after kanamycin selection (control-corrected) (log10(CPM+1)); higher = more efficient recombination; sequences stand for … in AGTGCAGAGAAAATCGGCCAGTTTTCTCTGCCTGCAGTCCGCATGCCGT…AGATTTATGCAGCGGACTGCCTTTCTCCCAAAGTGATAAACCGGACAGTATCATGGACCGGTTTTCCCGGTAATCCGTATTTGCAAGGTTGGTTTCACT; site = the 11-nt target
# Method in brief: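 A promoter, a target, a barcode and the first 104 bridge RNA bases under J23119 made up each oligo. Oligos were Gibson-cloned into a vector bearing the other 73 bp and a T7-inducible recombinase, then co-electroporated into E. coli with a donor plasmid and plated in duplicate on chloramphenicol/ampicillin LB agar (control) or chloramphenicol/ampicillin/kanamycin with 0.1 mM IPTG. Recombination efficiency is the averaged, control-corrected counts per million of recombinant-junction barcodes. Reported values are log10(CPM+1).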
# 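Note: IS621 recombinase and bridge RNA in Escherichia coli cells.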
row,Sequence,recombinant barcode read abundance (log10)
1,GTACGTCCTTGGGTTCTAACCTGTTGCTT (site GTACGTCCTAA),0.777
2,GTACGTCCTTGGGTTCTAACCTGTTGCTT (site GTACGTCCTAC),0.143
3,GTACGTCCTTGGGTTCTAACCTGTTGCTT (site GTACGTCCTAG),0.299
4,GTACGTCCTTGGGTTCTAACCTGTTGCTT (site GTACGTCCTAT),0.374
5,GTACTGCCTTGGGTTCTAACCTGTTGCCT (site GTACAGCCTAG),0.52
6,GTACTGCCTTGGGTTCTAACCTGTTGCCT (site GTACCGCCTAG),0.366
7,GTACTGCCTTGGGTTCTAACCTGTTGCCT (site GTACGGCCTAG),0.531
8,GTACTGCCTTGGGTTCTAACCTGTTGCCT (site GTACTGCCTAG),1.28
9,GTAGACACTTGGGTTCTAACCTGTTGCCG (site GTAAACACTCT),0.142
10,GTAGACACTTGGGTTCTAACCTGTTGCCG (site GTAGACACTCG),1.28
11,GTAGACCCTTGGGTTCTAACCTGTTGCCT (site ATAGACCCTAG),2.3
12,GTAGACCCTTGGGTTCTAACCTGTTGCCT (site CTAGACCCTAG),1.16
13,GTAGACCCTTGGGTTCTAACCTGTTGCCT (site GTAGACCCTAG),2.5
14,GTAGACCCTTGGGTTCTAACCTGTTGCCT (site TTAGACCCTAG),1.85
15,GTAGACCCTTGGGTTCTAACCTGTTGCGT (site GTAGACCCTAC),3.46
16,GTAGACCCTTGGGTTCTAACCTGTTGCGT (site GTAGACCCTCA),0.309
17,GTAGAGTCTTGGGTTCTAACCTGTTGCCT (site GAAGAGTCTAG),2.36
18,GTAGAGTCTTGGGTTCTAACCTGTTGCCT (site GCAGAGTCTAG),1.94
19,GTAGAGTCTTGGGTTCTAACCTGTTGCCT (site GGAGAGTCTAG),0.239
20,GTAGAGTCTTGGGTTCTAACCTGTTGCCT (site GTAGAGTCTAG),2.84
21,GTAGCAGCTTGGGTTCTAACCTGTTGCTC (site CTAGTAGCTGA),0.146
22,GTAGCAGCTTGGGTTCTAACCTGTTGCTC (site GTAGCAGCTGA),1.4
23,GTAGCGACTTGGGTTCTAACCTGTTGCCT (site ATAGGGACTAG),0.149
24,GTAGCGACTTGGGTTCTAACCTGTTGCCT (site GTAGCGACTAG),1.43
25,GTAGGAACTTGGGTTCTAACCTGTTGCTG (site CGGCTGTCTAG),0.0122
26,GTAGGAACTTGGGTTCTAACCTGTTGCTG (site GTAGGAACTCA),2.54

row,Sequence,recombinant barcode read abundance (log10)
1,GTAGGGACTTGGGTTCTAACCTGTTGCCG (site AGCCCTTCTAA),0.192
2,GTAGGGACTTGGGTTCTAACCTGTTGCCG (site GTAGGGACTCG),2.47
3,GTAGTACCTTGGGTTCTAACCTGTTGCCT (site GTAGTAACTAG),0.0694
4,GTAGTACCTTGGGTTCTAACCTGTTGCCT (site GTAGTACCTAG),1.73
5,GTAGTACCTTGGGTTCTAACCTGTTGCCT (site GTAGTAGCTAG),0.247
6,GTAGTACCTTGGGTTCTAACCTGTTGCCT (site GTAGTATCTAG),0.545
7,GTAGTCCCTTGGGTTCTAACCTGTTGCCT (site GAAGTCTCTAG),0.118
8,GTAGTCCCTTGGGTTCTAACCTGTTGCCT (site GTAGTCCCTAG),2.06
9,GTAGTGTCTTGGGTTCTAACCTGTTGCTA (site CTAGTGTCTTA),1.61
10,GTAGTGTCTTGGGTTCTAACCTGTTGCTA (site GTAGTGTCTTA),2.37
11,GTATCAACTTGGGTTCTAACCTGTTGCCT (site GTATCAACTAG),0.35
12,GTATCAACTTGGGTTCTAACCTGTTGCCT (site GTATCACCTAG),0.0908
13,GTATCAACTTGGGTTCTAACCTGTTGCCT (site GTATCAGCTAG),0.0211
14,GTATCAACTTGGGTTCTAACCTGTTGCCT (site GTATCATCTAG),0
15,GTATCACCTTGGGTTCTAACCTGTTGCCT (site GTATCAACTAG),0.19
16,GTATCACCTTGGGTTCTAACCTGTTGCCT (site GTATCACCTAG),1.44
17,GTATCACCTTGGGTTCTAACCTGTTGCCT (site GTATCAGCTAG),0.187
18,GTATCACCTTGGGTTCTAACCTGTTGCCT (site GTATCATCTAG),0.0641
19,GTATGACCTTGGGTTCTAACCTGTTGCCT (site GTATGAACTAG),0.0455
20,GTATGACCTTGGGTTCTAACCTGTTGCCT (site GTATGACCTAG),1.86
21,GTATGACCTTGGGTTCTAACCTGTTGCCT (site GTATGAGCTAG),0.0609
22,GTATGACCTTGGGTTCTAACCTGTTGCCT (site GTATGATCTAG),0.217
23,GTATGAGCTTGGGTTCTAACCTGTTGCCT (site GTATGAACTAG),0.475
24,GTATGAGCTTGGGTTCTAACCTGTTGCCT (site GTATGACCTAG),0.0478
25,GTATGAGCTTGGGTTCTAACCTGTTGCCT (site GTATGAGCTAG),1.5
26,GTATGAGCTTGGGTTCTAACCTGTTGCCT (site GTATGATCTAG),0.135

row,Sequence,recombinant barcode read abundance (log10)
1,GTATGCCCTTGGGTTCTAACCTGTTGCCT (site GTATGCCCTAG),1.38
2,GTATGCCCTTGGGTTCTAACCTGTTGCCT (site GTGGGCCCTAG),0
3,GTATGGTCTTGGGTTCTAACCTGTTGCGT (site GTATCGTCTAG),0.0442
4,GTATGGTCTTGGGTTCTAACCTGTTGCGT (site GTATGGTCTAC),2.98
5,GTATGTACTTGGGTTCTAACCTGTTGCAT (site GTATGATCTAT),0.206
6,GTATGTACTTGGGTTCTAACCTGTTGCAT (site GTATGTACTAT),0.435
7,GTCAACTCTTGGGTTCTAACCTGTTGCCT (site GTAAACTCTAG),0.0267
8,GTCAACTCTTGGGTTCTAACCTGTTGCCT (site GTCAACTCTAG),2.06
9,GTCAACTCTTGGGTTCTAACCTGTTGCCT (site GTGAACTCTAG),0.00674
10,GTCAACTCTTGGGTTCTAACCTGTTGCCT (site GTTAACTCTAG),0.13
11,GTCAATCCTTGGGTTCTAACCTGTTGCGG (site CGACGAACTAG),0.138
12,GTCAATCCTTGGGTTCTAACCTGTTGCGG (site GTCAATCCTCC),1.25
13,GTCAATCCTTGGGTTCTAACCTGTTGCGT (site GCCACTCCTAC),0.0762
14,GTCAATCCTTGGGTTCTAACCTGTTGCGT (site GTCAATCCTAC),1.98
15,GTCACCTCTTGGGTTCTAACCTGTTGCCT (site GTCACCTCTAG),1.8
16,GTCACCTCTTGGGTTCTAACCTGTTGCCT (site GTCCCCTCTAG),0.0973
17,GTCACCTCTTGGGTTCTAACCTGTTGCCT (site GTCGCCTCTAG),0.0645
18,GTCACCTCTTGGGTTCTAACCTGTTGCCT (site GTCTCCTCTAG),0.105
19,GTCACTACTTGGGTTCTAACCTGTTGCGT (site GTAACTACTCC),0.182
20,GTCACTACTTGGGTTCTAACCTGTTGCGT (site GTCACTACTAC),0.517
21,GTCAGCCCTTGGGTTCTAACCTGTTGCGG (site GTCAGCCCTCC),2.53
22,GTCAGCCCTTGGGTTCTAACCTGTTGCGG (site GTTAGCCCTCC),0.365
23,GTCCCTCCTTGGGTTCTAACCTGTTGCGT (site GTCCCTCCTAA),0.0918
24,GTCCCTCCTTGGGTTCTAACCTGTTGCGT (site GTCCCTCCTAC),2.74
25,GTCCCTCCTTGGGTTCTAACCTGTTGCGT (site GTCCCTCCTAG),0.156
